Source: US10040810B2, “Derivatives of bisacylphosphinic acid, their preparation and use as photoinitiators” (priority 2012, dated 2018)
≈ marks a conversion by molar mass, not a printed value.

Test: Solubility in water
Assay type: physicochemical
Protocol: 50 mg of the photoinitiator of example 1 is added to 1 ml of distilled water and the suspension stirred at room temperature for 60 minutes. Non-dissolved material is filtered off, dried in vacuo and weighed. The solubility is approximately 5 mg/ml.

## Cc1cc(C)c(C(=O)P(=O)(O)C(=O)c2c(C)cc(C)cc2C)c(C)c1 [Example 1, bis(2,4,6-trimethyl-benzoyl)-phosphinic acid]
Thermodynamic from solid, distilled water, room temperature, 60 minutes stirring
  solubility at 60 min: ~5000 µg/mL (≈ 14 mM)
water, preparation of formulation 4c
  solubility in water (in words): low solubility
